Laboratory results reported in ChEMBL document CHEMBL4837207, “Discovery of pyrrolo[2,3-d]pyrimidine derivatives as potent Axl inhibitors: Design, synthesis and biological evaluation” (Eur J Med Chem, 2021).

Experiments:
[1] = target: Vascular endothelial growth factor receptor 1 (Homo sapiens, UniProt P17948); experiment: Inhibition of VEGFR1 (unknown origin) by ELISA
[2] = target: Epidermal growth factor receptor (Homo sapiens, UniProt P00533); experiment: Inhibition of EGFR (unknown origin) by ELISA
[3] = target: Platelet-derived growth factor receptor alpha (Homo sapiens, UniProt P16234); experiment: Inhibition of PDGFRalpha (unknown origin) by ELISA
[4] = target: Hepatocyte growth factor receptor (Homo sapiens, UniProt P08581); experiment: Inhibition of c-MET (unknown origin) by ELISA
Hepatocyte growth factor receptor, sequence (P08581 whole entry): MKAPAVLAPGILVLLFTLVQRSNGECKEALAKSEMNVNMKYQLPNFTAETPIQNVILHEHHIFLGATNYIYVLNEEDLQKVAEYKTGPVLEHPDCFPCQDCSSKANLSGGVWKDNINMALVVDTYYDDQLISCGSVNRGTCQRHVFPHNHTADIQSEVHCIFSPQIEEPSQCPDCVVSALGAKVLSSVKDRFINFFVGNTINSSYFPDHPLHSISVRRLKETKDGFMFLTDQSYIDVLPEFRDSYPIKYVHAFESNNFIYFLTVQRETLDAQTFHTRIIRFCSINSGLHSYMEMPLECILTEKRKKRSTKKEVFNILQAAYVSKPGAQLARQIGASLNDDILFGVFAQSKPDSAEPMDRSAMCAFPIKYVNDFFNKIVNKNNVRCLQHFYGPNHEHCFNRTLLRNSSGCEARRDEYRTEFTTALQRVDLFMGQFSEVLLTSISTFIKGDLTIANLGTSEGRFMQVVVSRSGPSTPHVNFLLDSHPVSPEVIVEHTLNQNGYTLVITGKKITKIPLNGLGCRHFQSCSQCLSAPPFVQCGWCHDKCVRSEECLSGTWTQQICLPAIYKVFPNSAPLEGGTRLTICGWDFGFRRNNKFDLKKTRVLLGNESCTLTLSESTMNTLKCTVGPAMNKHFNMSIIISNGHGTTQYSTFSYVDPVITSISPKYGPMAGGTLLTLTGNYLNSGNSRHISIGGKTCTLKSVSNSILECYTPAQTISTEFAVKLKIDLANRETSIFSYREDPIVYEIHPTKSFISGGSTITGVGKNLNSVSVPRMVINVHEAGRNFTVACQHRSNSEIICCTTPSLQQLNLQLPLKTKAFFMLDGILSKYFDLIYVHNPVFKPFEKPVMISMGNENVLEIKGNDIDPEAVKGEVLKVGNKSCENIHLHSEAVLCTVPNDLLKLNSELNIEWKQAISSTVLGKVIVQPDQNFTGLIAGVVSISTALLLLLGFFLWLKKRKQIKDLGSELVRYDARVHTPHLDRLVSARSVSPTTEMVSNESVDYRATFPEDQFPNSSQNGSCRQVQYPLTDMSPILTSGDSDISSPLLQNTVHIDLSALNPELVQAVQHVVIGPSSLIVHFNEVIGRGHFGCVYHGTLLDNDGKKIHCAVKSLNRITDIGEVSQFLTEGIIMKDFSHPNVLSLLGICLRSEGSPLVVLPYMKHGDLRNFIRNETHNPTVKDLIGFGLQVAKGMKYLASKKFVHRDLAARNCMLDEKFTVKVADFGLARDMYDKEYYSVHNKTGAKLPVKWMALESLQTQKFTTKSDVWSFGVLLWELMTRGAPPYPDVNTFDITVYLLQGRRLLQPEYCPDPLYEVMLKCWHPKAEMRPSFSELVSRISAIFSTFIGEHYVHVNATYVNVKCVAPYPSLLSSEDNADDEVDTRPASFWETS

Platelet-derived growth factor receptor alpha, sequence (P16234 whole entry): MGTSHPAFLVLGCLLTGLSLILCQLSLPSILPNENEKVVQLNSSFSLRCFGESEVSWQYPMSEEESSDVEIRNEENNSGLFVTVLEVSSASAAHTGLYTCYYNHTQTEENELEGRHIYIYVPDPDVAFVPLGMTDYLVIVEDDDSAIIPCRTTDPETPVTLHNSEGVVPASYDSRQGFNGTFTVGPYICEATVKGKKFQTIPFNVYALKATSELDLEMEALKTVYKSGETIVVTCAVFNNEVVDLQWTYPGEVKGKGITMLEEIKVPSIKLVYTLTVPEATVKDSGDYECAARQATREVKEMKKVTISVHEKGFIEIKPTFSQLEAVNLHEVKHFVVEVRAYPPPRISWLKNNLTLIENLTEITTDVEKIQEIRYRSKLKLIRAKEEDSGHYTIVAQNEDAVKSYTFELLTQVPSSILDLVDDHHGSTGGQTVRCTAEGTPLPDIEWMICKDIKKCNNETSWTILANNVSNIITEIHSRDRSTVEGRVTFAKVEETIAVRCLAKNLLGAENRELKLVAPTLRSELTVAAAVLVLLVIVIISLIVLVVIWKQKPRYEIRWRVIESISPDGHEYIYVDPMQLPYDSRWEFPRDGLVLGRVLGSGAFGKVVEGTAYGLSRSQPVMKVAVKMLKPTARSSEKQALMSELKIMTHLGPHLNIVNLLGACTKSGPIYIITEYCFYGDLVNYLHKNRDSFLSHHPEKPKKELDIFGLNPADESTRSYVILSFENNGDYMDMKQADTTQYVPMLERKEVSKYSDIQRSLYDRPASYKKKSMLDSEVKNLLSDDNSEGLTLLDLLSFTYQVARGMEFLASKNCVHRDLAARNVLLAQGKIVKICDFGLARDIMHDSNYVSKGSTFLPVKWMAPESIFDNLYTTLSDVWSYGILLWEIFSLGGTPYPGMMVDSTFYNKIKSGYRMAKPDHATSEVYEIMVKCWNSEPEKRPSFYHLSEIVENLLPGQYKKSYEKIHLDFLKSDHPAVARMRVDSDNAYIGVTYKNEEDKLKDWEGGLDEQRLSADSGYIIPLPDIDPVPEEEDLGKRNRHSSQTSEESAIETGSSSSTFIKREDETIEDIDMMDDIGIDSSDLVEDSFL
Vascular endothelial growth factor receptor 1, sequence (P17948 whole entry): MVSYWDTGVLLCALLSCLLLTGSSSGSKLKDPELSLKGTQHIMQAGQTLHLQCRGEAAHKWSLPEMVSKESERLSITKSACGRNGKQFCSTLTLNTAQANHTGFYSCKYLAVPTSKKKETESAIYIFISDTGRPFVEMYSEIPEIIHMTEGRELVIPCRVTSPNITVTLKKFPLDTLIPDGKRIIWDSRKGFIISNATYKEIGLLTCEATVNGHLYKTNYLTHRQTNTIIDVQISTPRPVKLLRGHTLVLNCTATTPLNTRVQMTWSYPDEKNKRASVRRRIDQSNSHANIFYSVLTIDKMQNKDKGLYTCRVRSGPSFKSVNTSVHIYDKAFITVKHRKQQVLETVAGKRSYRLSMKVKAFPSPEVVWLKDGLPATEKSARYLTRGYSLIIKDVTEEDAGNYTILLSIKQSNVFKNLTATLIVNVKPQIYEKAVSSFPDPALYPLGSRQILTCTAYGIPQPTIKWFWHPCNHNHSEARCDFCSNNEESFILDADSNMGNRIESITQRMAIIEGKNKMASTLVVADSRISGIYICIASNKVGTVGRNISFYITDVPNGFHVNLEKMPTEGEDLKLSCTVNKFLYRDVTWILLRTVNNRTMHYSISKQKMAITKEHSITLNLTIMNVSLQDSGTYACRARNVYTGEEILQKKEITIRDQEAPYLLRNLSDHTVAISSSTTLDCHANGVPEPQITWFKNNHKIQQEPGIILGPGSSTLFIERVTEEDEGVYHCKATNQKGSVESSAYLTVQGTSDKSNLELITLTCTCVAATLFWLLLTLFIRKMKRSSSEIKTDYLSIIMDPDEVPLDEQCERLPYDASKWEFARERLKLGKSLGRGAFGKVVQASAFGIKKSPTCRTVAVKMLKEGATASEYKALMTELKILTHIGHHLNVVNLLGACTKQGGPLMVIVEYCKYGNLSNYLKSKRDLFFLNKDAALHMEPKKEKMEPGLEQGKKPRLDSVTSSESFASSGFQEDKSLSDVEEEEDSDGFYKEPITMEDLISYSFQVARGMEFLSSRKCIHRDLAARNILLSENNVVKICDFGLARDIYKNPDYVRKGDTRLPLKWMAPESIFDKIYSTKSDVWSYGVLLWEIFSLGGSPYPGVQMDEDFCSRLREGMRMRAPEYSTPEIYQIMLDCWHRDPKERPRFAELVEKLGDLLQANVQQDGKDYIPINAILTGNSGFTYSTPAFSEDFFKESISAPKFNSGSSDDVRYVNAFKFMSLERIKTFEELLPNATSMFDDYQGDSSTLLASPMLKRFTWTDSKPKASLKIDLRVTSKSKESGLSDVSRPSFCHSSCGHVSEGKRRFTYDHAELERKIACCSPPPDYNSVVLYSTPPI
Epidermal growth factor receptor, sequence (P00533 whole entry): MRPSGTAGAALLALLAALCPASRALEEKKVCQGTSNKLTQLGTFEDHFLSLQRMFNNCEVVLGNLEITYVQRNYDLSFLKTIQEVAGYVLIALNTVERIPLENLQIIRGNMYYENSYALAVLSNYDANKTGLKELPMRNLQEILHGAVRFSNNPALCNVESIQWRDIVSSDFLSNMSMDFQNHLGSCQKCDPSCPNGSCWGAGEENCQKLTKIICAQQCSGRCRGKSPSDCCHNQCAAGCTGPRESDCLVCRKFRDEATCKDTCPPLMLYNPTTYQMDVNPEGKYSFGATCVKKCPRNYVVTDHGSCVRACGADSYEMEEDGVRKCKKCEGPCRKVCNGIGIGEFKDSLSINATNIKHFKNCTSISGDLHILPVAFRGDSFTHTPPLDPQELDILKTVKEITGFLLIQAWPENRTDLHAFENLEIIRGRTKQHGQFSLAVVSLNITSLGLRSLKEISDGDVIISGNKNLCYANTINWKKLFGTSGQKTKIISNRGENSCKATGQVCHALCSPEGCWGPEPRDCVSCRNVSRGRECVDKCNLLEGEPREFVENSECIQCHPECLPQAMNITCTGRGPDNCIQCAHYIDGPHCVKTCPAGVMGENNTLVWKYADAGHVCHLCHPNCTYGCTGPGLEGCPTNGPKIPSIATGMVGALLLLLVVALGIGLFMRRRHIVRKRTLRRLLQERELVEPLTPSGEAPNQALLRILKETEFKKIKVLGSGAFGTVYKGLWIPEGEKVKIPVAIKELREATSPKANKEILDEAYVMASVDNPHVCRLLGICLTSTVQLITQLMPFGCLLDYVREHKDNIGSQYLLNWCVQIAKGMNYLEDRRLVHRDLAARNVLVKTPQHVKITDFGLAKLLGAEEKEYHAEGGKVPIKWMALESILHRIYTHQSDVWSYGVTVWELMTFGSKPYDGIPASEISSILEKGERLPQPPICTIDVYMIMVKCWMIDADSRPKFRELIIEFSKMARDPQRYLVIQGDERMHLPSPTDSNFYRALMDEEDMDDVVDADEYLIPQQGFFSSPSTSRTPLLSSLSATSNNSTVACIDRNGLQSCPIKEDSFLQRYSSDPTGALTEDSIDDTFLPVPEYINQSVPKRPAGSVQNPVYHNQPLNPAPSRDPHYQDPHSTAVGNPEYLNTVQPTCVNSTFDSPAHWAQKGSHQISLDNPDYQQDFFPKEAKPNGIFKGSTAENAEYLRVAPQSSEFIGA

- IC50 [1]: > 1000 nM
- IC50 [2]: > 1000 nM
- IC50 [3]: > 1000 nM
- IC50 [4]: 4.5 nM
SMILES: CC(C)n1cc(C(=O)Nc2cc(F)c(-c3c[nH]c4ncnc(N)c34)cc2F)c(=O)c(-c2ccc(F)cc2)c1
